Values of other authors in patent US11654140B2, “Treatment of ocular inflammatory diseases using laquinimod” (Active Biotech AB, priority 2012, dated 2023).

Tested on: patients with a history of uveitis
Details: patients with a history of uveitis (Sergott, 2011); cited from earlier work

Structure (SMILES): CCCCCCCCc1ccc(CCC(N)(CO)CO)cc1 [fingolimod]
- risk of macular edema: known to pose a risk of macular edema
